Results on 12 compounds are retold here after ChEMBL document CHEMBL4118186 (Bioorg Med Chem Lett, 2018).

For data set [1], the target named is T1, Proteasome Macropain subunit MB1 (Homo sapiens, UniProt P28074).
T1 sequence (P28074 whole entry): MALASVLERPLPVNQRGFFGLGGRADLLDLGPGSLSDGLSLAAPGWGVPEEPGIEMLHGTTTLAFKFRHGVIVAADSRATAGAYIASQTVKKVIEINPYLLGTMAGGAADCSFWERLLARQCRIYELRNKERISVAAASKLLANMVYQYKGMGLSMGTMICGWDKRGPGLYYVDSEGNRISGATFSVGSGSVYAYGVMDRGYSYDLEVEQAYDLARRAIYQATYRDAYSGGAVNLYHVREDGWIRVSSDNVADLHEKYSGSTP
Briefly: Inhibition of chymotrypsin-like activity of human 20S proteasome using Suc-Leu-Leu-Val-Tyr-AMC as substrate after 1 hr by fluorescence analysis.

Data set [2] in a line: Metabolic stability in human liver microsomes at 1 uM preincubated for 5 mins followed by NADP+ addition measured up to 40 mins by LC/MS method. It counts as ADME, microsome.
Data set [3] can be described thus: Metabolic stability in BALB/c mouse liver microsomes at 1 uM preincubated for 5 mins followed by NADP+ addition measured up to 40 mins by LC/MS method. It counts as ADME, microsome.

For orientation: IC50 means the midpoint of a concentration-inhibition curve. A higher IC50 goes with lower potency.

In data set [1], `CC(C)C[C@H](NC(=O)[C@H](Cc1ccccc1)NCc1ccccc1)B(O)O` had an IC50 of 9.7 nM. Moreover, the Stability entry in data set [2] and in data set [3] was “Stable” throughout. Take `CC(C)C[C@H](NC(=O)[C@H](Cc1ccccc1)Oc1cccc2ccccc12)B(O)O`: in data set [1], the IC50 was determined as 275 nM. Same read-out and setting: to `CC(C)C[C@H](NC(=O)[C@H](Cc1ccccc1)Nc1cnccn1)B(O)O` belongs 192 nM. As to `CC(C)C[C@H](NC(=O)[C@H](Cc1ccccc1)OCc1ccccc1)B(O)O`, in data set [1], half-maximal inhibition (IC50) was put at 36 nM.

Regarding `CC(C)C[C@H](NC(=O)[C@H](Cc1ccccc1)NCc1cccc2ccccc12)B(O)O`, half-maximal inhibition in data set [1] (IC50) was put at 92 nM. Still for that read-out and setting: to `CC(C)C[C@H](NC(=O)[C@H](Cc1ccccc1)Oc1ccccc1)B(O)O` belongs 126 nM. The same measure, in the same setting: in the case of `CC(C)C[C@H](NC(=O)[C@H](Cc1ccccc1)OCc1cccc2ccccc12)B(O)O` it was 109 nM; in that of `CC(C)C[C@H](NC(=O)[C@H](Cc1ccccc1)Nc1cccc2ccccc12)B(O)O`, 166 nM.

With `CC(C)C[C@H](NC(=O)[C@H](Cc1ccccc1)Oc1cnccn1)B(O)O`, 155 nM corresponded to half-maximal inhibition in data set [1] (IC50). The same measure, in the same setting: in the case of `CC(C)C[C@H](NC(=O)[C@H](Cc1ccccc1)NCc1cnccn1)B(O)O` it was 65 nM; in that of `CC(C)C[C@H](NC(=O)[C@H](Cc1ccccc1)OCc1cnccn1)B(O)O`, 53 nM. The same measure, in the same setting: in the case of `CC(C)C[C@H](NC(=O)[C@H](Cc1ccccc1)Nc1ccccc1)B(O)O` it was 335 nM.
